SMILES strings stand for the structures. Numbers after ± are expanded uncertainties.

The conditions of the data set: 298.15 K; 101.33 kPa; Liquid.
The mass density is the mass of a sample divided by its volume. `CCCCCC[n+]1ccccc1.F[B-](F)(F)F` [1-hexylpyridinium tetrafluoroborate]: the mass density is on record as 1154.8 ± 0.8 kg/m3.

For `CCCC[n+]1ccc(C)cc1.F[B-](F)(F)F` [1-butyl-4-methylpyridinium tetrafluoroborate], the mass density came out at 1183.1 ± 0.9 kg/m3.

On to `Cc1ccccc1` [toluene], for which the mass density stood at 862.27 ± 0.53 kg/m3.

As for `CCCC[n+]1ccccc1.F[B-](F)(F)F` [1-butylpyridinium tetrafluoroborate], the mass density was 1214 ± 1 kg/m3.

`c1ccccc1` [benzene]: the mass density is 873.4 ± 0.5 kg/m3.

With `CCCC[n+]1ccccc1C.F[B-](F)(F)F` [1-butyl-2-methylpyridinium tetrafluoroborate], the mass density came to 1202.5 ± 1 kg/m3.

(Values after the NIST ThermoML archive (doi:10.1021/je901065e).)
